Assay results: patent publication US9682995B2, “Amino-substituted isothiazoles” (BAYER PHARMA AKTIENGESELLSCHAFT, priority 2013, dated 2017)

Key:
Test in all cases: Kinase Profiling (KINOMEscan)
Assay type in all cases: binding
[1] = molecular target: 456 kinases (of these 395 non-mutant kinases) (Homo sapiens, UniProt O00444); conditions: PLK4; 10 μM
[2] = molecular target: 456 kinases (of these 395 non-mutant kinases) (Homo sapiens, UniProt O14730); conditions: RIOK3; 10 μM
[3] = molecular target: 456 kinases (of these 395 non-mutant kinases) (Homo sapiens, UniProt O15111); conditions: IKK-alpha; 10 μM
[4] = molecular target: 456 kinases (of these 395 non-mutant kinases) (Homo sapiens, UniProt O60674); conditions: JAK2(JH1domain-catalytic); 10 μM
[5] = molecular target: 456 kinases (of these 395 non-mutant kinases) (Homo sapiens, UniProt O94921); conditions: PFTK1; 10 μM
[6] = molecular target: 456 kinases (of these 395 non-mutant kinases) (Homo sapiens, UniProt P07333); conditions: 10 μM
[7] = molecular target: 456 kinases (of these 395 non-mutant kinases) (Homo sapiens, UniProt P07947); conditions: YES; 10 μM
[8] = molecular target: 456 kinases (of these 395 non-mutant kinases) (Homo sapiens, UniProt P15056); conditions: BRAF; 10 μM
[9] = molecular target: 456 kinases (of these 395 non-mutant kinases) (Homo sapiens, UniProt P15735); conditions: PHKG2; 10 μM
[10] = molecular target: 456 kinases (of these 395 non-mutant kinases) (Homo sapiens, UniProt P22607); conditions: FGFR3; 10 μM
[11] = molecular target: 456 kinases (of these 395 non-mutant kinases) (Homo sapiens, UniProt P23458); conditions: 10 μM
[12] = molecular target: 456 kinases (of these 395 non-mutant kinases) (Homo sapiens, UniProt P29323); conditions: EPHB2; 10 μM
[13] = molecular target: 456 kinases (of these 395 non-mutant kinases) (Homo sapiens, UniProt P42685); conditions: FRK; 10 μM
[14] = molecular target: 456 kinases (of these 395 non-mutant kinases) (Homo sapiens, UniProt P50750); conditions: CDK9; 10 μM
[15] = molecular target: 456 kinases (of these 395 non-mutant kinases) (Homo sapiens, UniProt P51957); conditions: NEK4; 10 μM
[16] = molecular target: 456 kinases (of these 395 non-mutant kinases) (Homo sapiens, UniProt P52564); conditions: MEK6; 10 μM
[17] = molecular target: 456 kinases (of these 395 non-mutant kinases) (Homo sapiens, UniProt P53778); conditions: p38-gamma; 10 μM
[18] = molecular target: 456 kinases (of these 395 non-mutant kinases) (Homo sapiens, UniProt Q08881); conditions: ITK; 10 μM
[19] = molecular target: 456 kinases (of these 395 non-mutant kinases) (Homo sapiens, UniProt Q09013); conditions: DMPK; 10 μM
[20] = molecular target: 456 kinases (of these 395 non-mutant kinases) (Homo sapiens, UniProt Q13233); conditions: MAP3K1; 10 μM
[21] = molecular target: 456 kinases (of these 395 non-mutant kinases) (Homo sapiens, UniProt Q13546); conditions: RIPK1; 10 μM
[22] = molecular target: 456 kinases (of these 395 non-mutant kinases) (Homo sapiens, UniProt Q15418); conditions: 10 μM
[23] = molecular target: 456 kinases (of these 395 non-mutant kinases) (Homo sapiens, UniProt Q15831); conditions: LKB1; 10 μM
[24] = molecular target: 456 kinases (of these 395 non-mutant kinases) (Homo sapiens, UniProt Q16513); conditions: PKN2; 10 μM
[25] = molecular target: 456 kinases (of these 395 non-mutant kinases) (Homo sapiens, UniProt Q2M2I8); conditions: AAK1; 10 μM
[26] = molecular target: 456 kinases (of these 395 non-mutant kinases) (Homo sapiens, UniProt Q5VT25); conditions: MRCKA; 10 μM
[27] = molecular target: 456 kinases (of these 395 non-mutant kinases) (Homo sapiens, UniProt Q8TDR2); conditions: STK35; 10 μM
[28] = molecular target: 456 kinases (of these 395 non-mutant kinases) (Homo sapiens, UniProt Q9H0K1); conditions: SIK2; 10 μM
[29] = molecular target: 456 kinases (of these 395 non-mutant kinases) (Homo sapiens, UniProt Q9UPE1); conditions: SRPK3; 10 μM
[30] = molecular target: 456 kinases (of these 395 non-mutant kinases) (Homo sapiens, UniProt Q9Y243); conditions: AKT3; 10 μM
[31] = molecular target: 456 kinases (of these 395 non-mutant kinases) (Homo sapiens, UniProt Q9Y2H1); conditions: NDR2; 10 μM
[32] = molecular target: 456 kinases (of these 395 non-mutant kinases) (Homo sapiens, UniProt Q9Y2U5); conditions: MAP3K2; 10 μM

Chain of 456 kinases (of these 395 non-mutant kinases) (Homo sapiens, UniProt P07333) (P07333 20-972 limits assumed, change not shown): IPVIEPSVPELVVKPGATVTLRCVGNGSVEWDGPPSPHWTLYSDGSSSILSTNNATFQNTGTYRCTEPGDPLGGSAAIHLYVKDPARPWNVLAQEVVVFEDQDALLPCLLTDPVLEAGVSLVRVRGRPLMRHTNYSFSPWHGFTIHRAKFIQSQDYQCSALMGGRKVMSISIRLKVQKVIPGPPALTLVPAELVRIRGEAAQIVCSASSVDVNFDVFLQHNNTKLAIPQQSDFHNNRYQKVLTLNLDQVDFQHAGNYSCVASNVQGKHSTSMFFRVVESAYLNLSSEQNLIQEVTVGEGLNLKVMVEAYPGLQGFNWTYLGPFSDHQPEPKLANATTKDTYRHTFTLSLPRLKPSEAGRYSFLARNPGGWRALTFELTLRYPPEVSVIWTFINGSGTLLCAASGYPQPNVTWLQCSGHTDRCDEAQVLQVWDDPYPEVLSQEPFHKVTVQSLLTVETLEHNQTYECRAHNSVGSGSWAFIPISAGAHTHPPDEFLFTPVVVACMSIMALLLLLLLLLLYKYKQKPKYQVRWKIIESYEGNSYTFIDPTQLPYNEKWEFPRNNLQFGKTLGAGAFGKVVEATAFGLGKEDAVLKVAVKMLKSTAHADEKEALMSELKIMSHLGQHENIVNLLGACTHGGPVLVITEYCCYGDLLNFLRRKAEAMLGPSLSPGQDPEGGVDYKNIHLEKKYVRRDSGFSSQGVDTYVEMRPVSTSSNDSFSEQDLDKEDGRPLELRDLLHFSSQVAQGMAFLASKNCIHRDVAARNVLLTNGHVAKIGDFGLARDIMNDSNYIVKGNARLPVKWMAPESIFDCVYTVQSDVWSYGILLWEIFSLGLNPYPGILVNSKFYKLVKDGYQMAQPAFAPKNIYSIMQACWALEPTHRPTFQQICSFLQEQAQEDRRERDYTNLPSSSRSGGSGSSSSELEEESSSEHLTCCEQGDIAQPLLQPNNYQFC
Chain of 456 kinases (of these 395 non-mutant kinases) (Homo sapiens, UniProt P15056) (P15056 2-766 limits assumed, change not shown): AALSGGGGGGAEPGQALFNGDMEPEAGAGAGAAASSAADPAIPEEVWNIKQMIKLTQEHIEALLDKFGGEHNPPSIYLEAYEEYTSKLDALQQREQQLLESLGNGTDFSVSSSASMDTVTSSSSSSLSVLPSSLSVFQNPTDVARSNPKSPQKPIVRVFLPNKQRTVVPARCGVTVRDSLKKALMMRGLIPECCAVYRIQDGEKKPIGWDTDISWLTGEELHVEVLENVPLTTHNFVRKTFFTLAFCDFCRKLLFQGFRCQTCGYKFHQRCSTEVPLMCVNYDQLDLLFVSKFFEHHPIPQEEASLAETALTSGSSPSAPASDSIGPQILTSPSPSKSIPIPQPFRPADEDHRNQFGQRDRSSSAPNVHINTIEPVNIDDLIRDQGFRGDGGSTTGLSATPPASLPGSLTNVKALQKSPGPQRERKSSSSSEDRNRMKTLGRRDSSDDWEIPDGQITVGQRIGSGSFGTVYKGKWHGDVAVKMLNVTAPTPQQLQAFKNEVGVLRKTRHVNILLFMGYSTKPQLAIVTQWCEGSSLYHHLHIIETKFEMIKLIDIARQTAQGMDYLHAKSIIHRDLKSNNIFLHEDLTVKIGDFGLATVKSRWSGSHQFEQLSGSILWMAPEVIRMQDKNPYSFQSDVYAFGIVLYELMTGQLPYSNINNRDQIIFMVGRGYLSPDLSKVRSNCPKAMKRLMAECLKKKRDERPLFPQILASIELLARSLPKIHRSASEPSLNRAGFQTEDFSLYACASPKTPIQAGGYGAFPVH
Chain of 456 kinases (of these 395 non-mutant kinases) (Homo sapiens, UniProt P29323) (P29323 19-1055 limits assumed, change not shown): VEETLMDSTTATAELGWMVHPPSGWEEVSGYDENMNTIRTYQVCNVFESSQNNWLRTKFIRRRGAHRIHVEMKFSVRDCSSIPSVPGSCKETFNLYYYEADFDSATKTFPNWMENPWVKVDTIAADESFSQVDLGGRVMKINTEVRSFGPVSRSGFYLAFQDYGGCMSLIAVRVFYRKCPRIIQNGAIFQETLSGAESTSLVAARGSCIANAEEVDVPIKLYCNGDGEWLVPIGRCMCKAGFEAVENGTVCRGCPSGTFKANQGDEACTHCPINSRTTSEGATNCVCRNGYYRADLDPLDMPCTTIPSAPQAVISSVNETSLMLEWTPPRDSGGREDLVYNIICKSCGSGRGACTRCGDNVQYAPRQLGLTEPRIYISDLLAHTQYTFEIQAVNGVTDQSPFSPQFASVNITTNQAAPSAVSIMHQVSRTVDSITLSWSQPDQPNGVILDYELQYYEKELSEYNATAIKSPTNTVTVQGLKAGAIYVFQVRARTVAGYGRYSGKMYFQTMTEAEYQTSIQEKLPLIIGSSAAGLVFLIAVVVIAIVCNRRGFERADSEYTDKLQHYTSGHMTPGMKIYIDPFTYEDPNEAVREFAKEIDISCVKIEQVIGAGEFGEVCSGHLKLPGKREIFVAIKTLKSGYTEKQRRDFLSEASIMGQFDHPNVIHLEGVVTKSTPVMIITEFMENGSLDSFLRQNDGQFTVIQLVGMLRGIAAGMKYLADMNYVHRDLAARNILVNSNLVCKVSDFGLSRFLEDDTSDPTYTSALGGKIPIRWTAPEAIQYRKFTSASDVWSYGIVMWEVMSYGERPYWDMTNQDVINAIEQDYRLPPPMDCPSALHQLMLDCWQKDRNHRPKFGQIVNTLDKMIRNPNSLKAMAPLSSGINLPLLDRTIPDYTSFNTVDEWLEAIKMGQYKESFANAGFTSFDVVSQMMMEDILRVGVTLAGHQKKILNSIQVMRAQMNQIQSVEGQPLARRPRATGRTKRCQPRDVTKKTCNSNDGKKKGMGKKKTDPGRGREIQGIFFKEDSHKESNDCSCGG
Chain of 456 kinases (of these 395 non-mutant kinases) (Homo sapiens, UniProt Q9Y2H1) (Q9Y2H1 2-464 limits assumed, change not shown): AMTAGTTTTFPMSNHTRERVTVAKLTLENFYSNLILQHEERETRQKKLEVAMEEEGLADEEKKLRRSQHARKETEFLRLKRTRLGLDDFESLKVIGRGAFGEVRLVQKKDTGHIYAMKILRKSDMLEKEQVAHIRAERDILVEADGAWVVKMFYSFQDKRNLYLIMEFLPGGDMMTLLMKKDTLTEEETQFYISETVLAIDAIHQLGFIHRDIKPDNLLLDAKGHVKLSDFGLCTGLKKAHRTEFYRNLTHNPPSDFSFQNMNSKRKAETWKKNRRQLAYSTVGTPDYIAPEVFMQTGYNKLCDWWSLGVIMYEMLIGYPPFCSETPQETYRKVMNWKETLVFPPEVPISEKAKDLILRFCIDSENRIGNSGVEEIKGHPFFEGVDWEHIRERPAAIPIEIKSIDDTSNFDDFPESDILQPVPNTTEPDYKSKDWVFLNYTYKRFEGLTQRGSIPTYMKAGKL
Chain of 456 kinases (of these 395 non-mutant kinases) (Homo sapiens, UniProt Q13233) (Q13233 2-1512 limits assumed, change not shown): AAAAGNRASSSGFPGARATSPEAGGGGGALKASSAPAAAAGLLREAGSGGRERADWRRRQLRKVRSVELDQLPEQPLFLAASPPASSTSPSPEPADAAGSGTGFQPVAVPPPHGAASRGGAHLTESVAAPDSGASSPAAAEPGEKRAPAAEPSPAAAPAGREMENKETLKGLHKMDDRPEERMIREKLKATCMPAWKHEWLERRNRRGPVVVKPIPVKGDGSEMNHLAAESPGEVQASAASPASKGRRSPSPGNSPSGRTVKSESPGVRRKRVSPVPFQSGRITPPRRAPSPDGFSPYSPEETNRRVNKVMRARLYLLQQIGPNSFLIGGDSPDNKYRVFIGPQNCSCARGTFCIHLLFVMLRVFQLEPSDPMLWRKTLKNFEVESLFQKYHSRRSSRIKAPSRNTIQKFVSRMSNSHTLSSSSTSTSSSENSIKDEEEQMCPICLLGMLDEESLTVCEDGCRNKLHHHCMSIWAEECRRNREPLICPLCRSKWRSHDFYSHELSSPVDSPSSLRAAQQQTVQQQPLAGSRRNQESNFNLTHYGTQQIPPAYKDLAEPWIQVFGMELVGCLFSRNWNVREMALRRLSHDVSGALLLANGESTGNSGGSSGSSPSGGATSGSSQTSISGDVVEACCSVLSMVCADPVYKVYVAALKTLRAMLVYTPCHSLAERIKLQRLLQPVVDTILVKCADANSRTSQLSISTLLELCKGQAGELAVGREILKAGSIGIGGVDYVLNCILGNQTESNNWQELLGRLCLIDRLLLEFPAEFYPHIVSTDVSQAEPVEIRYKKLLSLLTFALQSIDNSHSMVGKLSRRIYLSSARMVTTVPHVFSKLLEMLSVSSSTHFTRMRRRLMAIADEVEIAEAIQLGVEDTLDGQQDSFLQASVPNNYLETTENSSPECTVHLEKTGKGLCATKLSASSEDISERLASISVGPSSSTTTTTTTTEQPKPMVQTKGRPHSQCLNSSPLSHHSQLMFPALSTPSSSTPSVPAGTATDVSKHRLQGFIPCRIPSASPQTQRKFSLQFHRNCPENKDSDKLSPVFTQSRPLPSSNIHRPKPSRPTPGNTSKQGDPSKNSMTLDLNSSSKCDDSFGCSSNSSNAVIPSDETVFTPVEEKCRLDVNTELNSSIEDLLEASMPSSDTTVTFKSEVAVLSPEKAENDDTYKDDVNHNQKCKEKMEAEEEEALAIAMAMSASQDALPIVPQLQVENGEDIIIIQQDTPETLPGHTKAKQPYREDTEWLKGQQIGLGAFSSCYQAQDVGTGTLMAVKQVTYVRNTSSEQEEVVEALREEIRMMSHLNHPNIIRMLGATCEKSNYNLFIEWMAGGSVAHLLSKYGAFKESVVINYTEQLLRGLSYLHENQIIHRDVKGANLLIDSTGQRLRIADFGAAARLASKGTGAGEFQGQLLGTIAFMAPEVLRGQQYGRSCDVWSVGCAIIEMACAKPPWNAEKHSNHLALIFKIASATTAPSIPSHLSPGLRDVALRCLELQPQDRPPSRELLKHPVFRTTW

SMILES: CCc1ccccc1NC(=O)c1c(C)nsc1Nc1cnc2cc(F)ccc2n1 [Example 20, N-(2-Ethylphenyl)-5-[(6-fluoroquinoxalin-2-yl)amino]-3-methyl-1,2-thiazole-4-carboxamide]
- % Ctrl @ 10 μM [1]: 100 % Ctrl
- % Ctrl @ 10 μM [2]: 91 % Ctrl
- % Ctrl @ 10 μM [3]: 84 % Ctrl
- % Ctrl @ 10 μM [4]: 100 % Ctrl
- % Ctrl @ 10 μM [5]: 93 % Ctrl
- % Ctrl @ 10 μM ([6]; CSF1R-autoinhibited): 91 % Ctrl
- % Ctrl @ 10 μM ([6]; CSF1R): 100 % Ctrl
- % Ctrl @ 10 μM [7]: 90 % Ctrl
- % Ctrl @ 10 μM [8]: 82 % Ctrl
- % Ctrl @ 10 μM [9]: 99 % Ctrl
- % Ctrl @ 10 μM [10]: 85 % Ctrl
- % Ctrl @ 10 μM ([11]; JAK1(JH1domain-catalytic)): 100 % Ctrl
- % Ctrl @ 10 μM ([11]; JAK1(JH2domain-pseudokinase)): 71 % Ctrl
- % Ctrl @ 10 μM [12]: 77 % Ctrl
- % Ctrl @ 10 μM [13]: 66 % Ctrl
- % Ctrl @ 10 μM [14]: 100 % Ctrl
- % Ctrl @ 10 μM [15]: 99 % Ctrl
- % Ctrl @ 10 μM [16]: 95 % Ctrl
- % Ctrl @ 10 μM [17]: 58 % Ctrl
- % Ctrl @ 10 μM [18]: 100 % Ctrl
- % Ctrl @ 10 μM [19]: 84 % Ctrl
- % Ctrl @ 10 μM [20]: 84 % Ctrl
- % Ctrl @ 10 μM [21]: 99 % Ctrl
- % Ctrl @ 10 μM ([22]; RSK1(Kin.Dom.1-N-terminal)): 95 % Ctrl
- % Ctrl @ 10 μM ([22]; RSK1(Kin.Dom.2-C-terminal)): 86 % Ctrl
- % Ctrl @ 10 μM [23]: 100 % Ctrl
- % Ctrl @ 10 μM [24]: 100 % Ctrl
- % Ctrl @ 10 μM [25]: 68 % Ctrl
- % Ctrl @ 10 μM [26]: 92 % Ctrl
- % Ctrl @ 10 μM [27]: 84 % Ctrl
- % Ctrl @ 10 μM [28]: 84 % Ctrl
- % Ctrl @ 10 μM [29]: 87 % Ctrl
- % Ctrl @ 10 μM [30]: 100 % Ctrl
- % Ctrl @ 10 μM [31]: 75 % Ctrl
- % Ctrl @ 10 μM [32]: 100 % Ctrl
